Several values for one entry are separate records, joined by “and”; a condition that tells them apart may be missing. Equal entries are not always repeated.
Experiments:
[1] = tested on: ex vivo instilled rat lung; assay: Ex vivo rat flooded lung, model of hydrostatic edema
Method: In this model edema is induced by instillating 2 ml of 0.9% NaCl solution intratracheally. Alternatively, edema formation can be modulated by varying the height of the venous outflow and the perfusion buffer containing reservoir, or alternatively by varying the time the lung is exposed to the elevated pressure. […] The clearance of alveolar fluid from the lung is calculated by means of measuring the concentration of HSA, which is added to the instillate over time. Alternatively, the over time weight loss as a measure of edema resorption (high weight loss is high liquid clearance), of the artificially instilled lung can be measured. The lung tidal volume, compliance and weight are monitored continuously during the experiment. At the end of the experiment bronchoalveolar fluid and supernatant of lung homogenate is taken for measurement of inflammatory mediators.
The lungs of female Wistar rats (weight 200–250 g; Harlan-Winkelmann, Borchen, Germany) are prepared after terminal i.p. anesthesia by 160 mg/kg pentobarbitural —Na (Merial Ltd, Halbermoos, Germany) and perfused as described by Uhlig and Wolin (1994), and by Uhlig and von Bethmann (1997). All equipment is obtained from Hugo Sachs Electronics (March-Hugstetten, Germany). […] As perfusion medium, a Krebs-Henseleit buffer (38° C.) containing 2% bovine serum albumin (Fraction V, Scrva. Heidelberg, Germany), 0.1% glucose (Riedel-de-Haën Inc., Seelze, Germany), and 0.3% HEPES (ICN Biomedicals Inc., Ohio, USA) is used. The total amount of recirculating buffer is 100 ml. The lungs are suspended by the trachea and ventilated by negative pressure ventilation (inspiratory pressure: −7 cm H2O, expiratory pressure: −2 cm H2O) with 80 breaths per minute resulting in a tidal volume of approximately 2 ml. Every 5 minutes, a deep inspiratory breath (−20 cm H2O) is performed. Artificial thorax chamber pressure is measured with a differential pressure transducer (Validyne DP 45-14), and an air flow velocity with a pneumotachograh tube (Fleisch Type 0000) connected to a differential pressure transducer (Validyne DP 45-15). The perfusate flow (Narcomatic RT-500) and the arterial and venous pressure (Statham P23BB) are continuously monitored. The pH of the perfusate before entering the lung is kept at 7.25 to 7.35 by automatic bubbling of the buffer with CO2 as soon as the pH exceeds this range. A weight transducer is integrated into the chamber lid which allows the continuous assessment of lung weight. Data are recorded on a Pentium II computer using the Mathlab Sofware package (Mathworks, Inc., Nattick Mass., USA). For lung mechanics, the data are analyzed by applying the following formula: P=1/C*VT+RLdV/dT
Where P is chamber pressure, C pulmonary compliance, VT tidal volume, and RL airway resistance. All lung physiology parameters were normalized to time point 0, i.e. after the end of the preconditioning perfusion of 40 minutes.

C57/BL6 wild type mice = assay: In situ mouse model of alveolar fluid clearance, wild type mice; format: in vivo; conditions: over 15 min, compared to controls; 0.5 μg/mouse instilled
Method: In situ mouse model. Mice were killed by an overdose of pentobarbital sodium (200 mg/kg i.p.). A tracheotomy was done with a 20-gauge trimmed angiocath plastic needle (Becton Dickinson, Sandy, Utah, USA). The lungs were inflated with 7 cm H2O continuous positive airway pressure (CPAP) with 100% oxygen throughout the experiments. Body temperature was maintained at 37–38° C. by an infra-red lamp placed 30 cm above the body (Fisher, Santa Clara, Calif., USA). The lamp was cycled on and off to maintain the core temperature. A temperature probe (Yellow Springs Instrument, Yellow Springs, Ohio, USA) was inserted via a 0.5 cm incision into the abdominal cavity to monitor the core temperature throughout the experiment. These methods have been reported in Matthay et al., 1996 and Ma et al., 2000. […] We added 0.1 μCi of ^131I-labelled albumin (Merck-Frost, Montreal, PQ, Canada) to the instillate as a labeled alveolar protein tracer. • Group 1: Basal alveolar fluid clearance in the wild type mice (n=3) and TNF-R1/TNF-R2 double knock out mice (n=3). • Group 2: Effect of wild type mTNF (0.5 μg/mouse) stimulated alveolar fluid clearance was measured in wild type mice (n=5) and TNF-R1/TNF-R2 double knock out mice (n=5) (Bruce et al., 1996).

Substance: TNF: E.coli-derived recombinant murine TNF
- clearing alveolar fluid content ex vivo ([1]; after intratracheal instillation, summary in words): capable of clearing alveolar fluid content
- Weight loss of ex vivo instilled rat lung over 80 min ([1]; recombinant TNF 5 μg/lung alone, listed as mTNF): 589 mg and 722 mg and 584 mg
- increase in alveolar fluid clearance (AFC) (C57/BL6 wild type mice): 24%

Source: US7258861B2, “TNF-derived peptides for use in treating oedema” (Innogenetics N.V., priority 2001, dated 2007)
